{
  "source": "patent US11266662B2",
  "about": "“Ganaxolone for use in prophylaxis and treatment of postpartum depression” (Marinus Pharmaceuticals, Inc., priority 2018, dated 2022)",
  "key": {"[1]": {"experiment": "Phase 2A study (Magnolia) in women with postpartum depression: ganaxolone plasma concentrations / pharmacokinetics", "details": "for Ratio GNX Concentration (ng/mL)/(μg/hr/kg): individual subjects of Cohorts 1-3 (order of Table 1A), listed as GNX", "method": "Approximately 200 women with PPD 18 to 45 years of age are screened to randomize up to 100 subjects across up to 6 cohorts. Approximately 10-30 subjects are randomized into each cohort. Randomized subjects receive the investigational product (IP), ganaxolone or matching placebo in a 1:1 ratio. In Cohorts 1-5 the IP is administered intravenously over 60 hours. In Cohort 6 the dosing is initiated with a 6-hour intravenous (IV) infusion followed by oral dosing for 28 days plus 3-day taper.\nGanaxolone is infused at a rate of 4 mg/hr (16 ml/h of ganaxolone 0.25 mg/ml solution) for 48 hours and then, to minimize any risks for withdrawal or rebound of anxiety and depression symptoms, at a rate of 2 mg/hr for the next 12 hours. The infusion is stopped at 60 hours. Total of 9 subjects are dosed for this cohort.\nGanaxolone is infused at a rate of 8 mg/hr (16 ml/h of ganaxolone 0.5 mg/ml solution) for 48 hours and then at a rate of 4 mg/hr for the next 12 hours. This dose is approximately double the expected plasma exposure as compared to Cohort 1 at steady state (Cohort 2 expected plasma concentration ˜100-120 ng/mL). The infusion is stopped at 60 hours.\nTwelve mg bolus of ganaxolone is initially given over 2 minutes followed by ganaxolone infusion at a rate of 12 mg/hr (24 ml/h of ganaxolone 0.5 mg/ml solution) for 48 hours. The rate is then reduced to 6 mg/hr for the next 12 hours, which is done to minimize any risks for withdrawal or rebound of anxiety and depression symptoms. The infusion is stopped at 60 hours.\nIn this cohort dosing is initiated with ganaxolone infusion at a rate of 20 mg/hr (40 ml/h of ganaxolone 0.5 mg/ml solution or matching placebo) for 6 hours followed by ganaxolone 900 mg (four 225 mg capsules per dose) or matching placebo capsules given orally at dinner time for 28 days followed by a 3-day taper (three, two, and one 225 mg capsule(s) per day, respectively).\nThis initial infusion is targeted to provide a fast onset of antidepressant activity by delivery of rapid plasma exposures to ganaxolone. Then, at dinner time of Day 1 the subjects take their first oral dose of ganaxolone 900 mg (four 225 mg capsules) or matching placebo (4 capsules). […] In previous studies, ganaxolone has been given up to a daily dose of 2000 mg, and at single doses of 1000 mg.\nSix samples are collected for pharmacokinetic analysis in Cohorts 1-5 and 12 samples in Cohort 6. […] Seven samples are collected during the inpatient phase of Cohort 6 (including 6 samples on Day 1) followed by collection of 5 samples during the outpatient phase during the study visits for a total of 12 samples in Cohort 6."}, "[2]": {"tested_on": "subjects", "experiment": "All completed placebo-controlled clinical studies of ganaxolone: adverse events", "format": "in vivo, human", "method": "As of Oct. 10, 2017, 1557 unique subjects have received ganaxolone ranging in duration from 1 day to more than 2 years using doses from 50 to 2000 mg/day in completed studies. Of these subjects, 1527 subjects received oral ganaxolone and 30 subjects received intravenous (IV ganaxolone).\nIn 20 completed Phase 1 studies, 319 healthy subjects received ganaxolone oral doses of 50 to 2,000 mg/day for periods of up to 2 weeks or IV bolus doses ranging from 10 to 30 mg over durations of 2 minutes to 1 hour or a bolus dose of 6 mg over 5 minutes followed with a continuous infusion of 20 mg per hour for 4 hours.\nIn the 20 completed Phase 2/3 clinical studies, 1238 unique subjects have received oral ganaxolone in studies of adult subjects with epilepsy, pediatric subjects with seizure disorders, pediatric subjects with FXS, adult subjects with PTSD, and adult subjects with migraine."}, "[3]": {"experiment": "In vitro haemolysis / human plasma compatibility"}},
  "note": "Several values for one entry are separate records, joined by “and”; a condition that tells them apart may be missing. Identical values can stand only once. Entries after “also recorded” stand apart in the source; their conditions may differ.",
  "data": [
    {"compound": "CC(=O)[C@H]1CC[C@H]2[C@@H]3CC[C@H]4C[C@](C)(O)CC[C@]4(C)[C@H]3CC[C@]12C", "note": "[ganaxolone, 3α-hydroxy-3β-methyl-5α-pregnan-20-one]", "values": [
      {"measurement": "AUC", "setting": "[1]; female, human, plasma, iv, 220 ug/kg, AUC12-48, calculated from Table 1C, dose 220 μg/kg/hr (row order of Table 1C)", "value": 8540, "unit": "ng·h/mL"},
      {"measurement": "AUC", "setting": "[1]; female, human, plasma, iv, 220 ug/kg, AUC24-48, calculated from Table 1C, dose 220 μg/kg/hr (row order of Table 1C)", "value": 5890, "unit": "ng·h/mL"},
      {"measurement": "AUC", "setting": "[1]; female, human, plasma, iv, 260 ug/kg, AUC12-24, calculated from Table 1C, dose 260 μg/kg/hr (row order of Table 1C)", "value": 3130, "unit": "ng·h/mL"},
      {"measurement": "AUC", "setting": "[1]; female, human, plasma, iv, 260 ug/kg, AUC12-48, calculated from Table 1C, dose 260 μg/kg/hr (row order of Table 1C)", "value": 10100, "unit": "ng·h/mL"},
      {"measurement": "AUC", "setting": "[1]; female, human, plasma, iv, 260 ug/kg, AUC24-48, calculated from Table 1C, dose 260 μg/kg/hr (row order of Table 1C)", "value": 6960, "unit": "ng·h/mL"},
      {"measurement": "concentration at 12 h", "setting": "[1]; female, human, plasma, iv, GNX Concentration, Cohort 1: IV 4 mg/hr for 48 h then 2 mg/hr for 12 h, individual subjects, time 12 hr", "value": 58.8, "unit": "ng/mL"},
      {"measurement": "concentration at 24 h", "setting": "[1]; female, human, plasma, iv, GNX Concentration, Cohort 1: IV 4 mg/hr for 48 h then 2 mg/hr for 12 h, individual subjects, time 24 hr", "value": 72.6, "unit": "ng/mL"},
      {"measurement": "concentration at 48 h", "setting": "[1]; female, human, plasma, iv, GNX Concentration, Cohort 1: IV 4 mg/hr for 48 h then 2 mg/hr for 12 h, individual subjects, time 48 hr", "value": 78.1, "unit": "ng/mL"},
      {"measurement": "concentration at 72 h", "setting": "[1]; female, human, plasma, iv, GNX Concentration, Cohort 1: IV 4 mg/hr for 48 h then 2 mg/hr for 12 h, individual subjects, time 72 hr", "value": 10.1, "unit": "ng/mL"},
      {"measurement": "Ratio GNX Concentration (ng/mL)/(μg/hr/kg)", "setting": "[1]; time 12 hrs", "value": "0.99 (ng/mL)/(μg/hr/kg) and 1.24 (ng/mL)/(μg/hr/kg) and 0.74 (ng/mL)/(μg/hr/kg) and 1.21 (ng/mL)/(μg/hr/kg) (3×) and 0.94 (ng/mL)/(μg/hr/kg) and 0.90 (ng/mL)/(μg/hr/kg) and 0.87 (ng/mL)/(μg/hr/kg) and 0.76 (ng/mL)/(μg/hr/kg) and 1.08 (ng/mL)/(μg/hr/kg) (2×) and 0.53 (ng/mL)/(μg/hr/kg) and 1.14 (ng/mL)/(μg/hr/kg) and 0.83 (ng/mL)/(μg/hr/kg) and 0.89 (ng/mL)/(μg/hr/kg) and 0.97 (ng/mL)/(μg/hr/kg) (3×) and 0.82 (ng/mL)/(μg/hr/kg) and 0.80 (ng/mL)/(μg/hr/kg) (2×) and 1.02 (ng/mL)/(μg/hr/kg) and 0.86 (ng/mL)/(μg/hr/kg) and 0.60 (ng/mL)/(μg/hr/kg) and 1.28 (ng/mL)/(μg/hr/kg)"},
      {"measurement": "Ratio GNX Concentration (ng/mL)/(μg/hr/kg)", "setting": "[1]; time 24 hrs", "value": "1.22 (ng/mL)/(μg/hr/kg) (3×) and 1.45 (ng/mL)/(μg/hr/kg) and 0.96 (ng/mL)/(μg/hr/kg) (2×) and 1.53 (ng/mL)/(μg/hr/kg) and 0.28 (ng/mL)/(μg/hr/kg) and 0.63 (ng/mL)/(μg/hr/kg) and 1.12 (ng/mL)/(μg/hr/kg) (3×) and 1.32 (ng/mL)/(μg/hr/kg) (2×) and 0.86 (ng/mL)/(μg/hr/kg) and 1.36 (ng/mL)/(μg/hr/kg) and 1.03 (ng/mL)/(μg/hr/kg) (2×) and 1.16 (ng/mL)/(μg/hr/kg) and 1.34 (ng/mL)/(μg/hr/kg) and 0.95 (ng/mL)/(μg/hr/kg) and 0.92 (ng/mL)/(μg/hr/kg) and 1.48 (ng/mL)/(μg/hr/kg) and 0.55 (ng/mL)/(μg/hr/kg) and 0.13 (ng/mL)/(μg/hr/kg)"},
      {"measurement": "Ratio GNX Concentration (ng/mL)/(μg/hr/kg)", "setting": "[1]; time 48 hrs", "value": "1.31 (ng/mL)/(μg/hr/kg) and 1.39 (ng/mL)/(μg/hr/kg) and 1.42 (ng/mL)/(μg/hr/kg) and 1.12 (ng/mL)/(μg/hr/kg) and 1.23 (ng/mL)/(μg/hr/kg) (2×) and 1.01 (ng/mL)/(μg/hr/kg) and 0.97 (ng/mL)/(μg/hr/kg) and 1.06 (ng/mL)/(μg/hr/kg) and 0.81 (ng/mL)/(μg/hr/kg) and 1.09 (ng/mL)/(μg/hr/kg) and 0.78 (ng/mL)/(μg/hr/kg) (2×) and 1.02 (ng/mL)/(μg/hr/kg) and 1.76 (ng/mL)/(μg/hr/kg) and 1.17 (ng/mL)/(μg/hr/kg) and 1.47 (ng/mL)/(μg/hr/kg) and 1.20 (ng/mL)/(μg/hr/kg) and 1.60 (ng/mL)/(μg/hr/kg) and 0.55 (ng/mL)/(μg/hr/kg) and 1.56 (ng/mL)/(μg/hr/kg) and 0.80 (ng/mL)/(μg/hr/kg) and 0.84 (ng/mL)/(μg/hr/kg)"},
      {"measurement": "Ratio GNX Concentration (ng/mL)/(μg/hr/kg)", "setting": "[1]; time 72 hrs", "value": "0.17 (ng/mL)/(μg/hr/kg) (2×) and 0.31 (ng/mL)/(μg/hr/kg) and 0.28 (ng/mL)/(μg/hr/kg) and 0.33 (ng/mL)/(μg/hr/kg) (2×) and 0.18 (ng/mL)/(μg/hr/kg) and 0.10 (ng/mL)/(μg/hr/kg) and 0.25 (ng/mL)/(μg/hr/kg) and 0.32 (ng/mL)/(μg/hr/kg) and 0.29 (ng/mL)/(μg/hr/kg) and 0.24 (ng/mL)/(μg/hr/kg) and 0.21 (ng/mL)/(μg/hr/kg) (2×) and 0.36 (ng/mL)/(μg/hr/kg) and 0.16 (ng/mL)/(μg/hr/kg) (2×) and 0.13 (ng/mL)/(μg/hr/kg) (2×) and 0.23 (ng/mL)/(μg/hr/kg) (2×) and 0.34 (ng/mL)/(μg/hr/kg) and 0.35 (ng/mL)/(μg/hr/kg) and 0.38 (ng/mL)/(μg/hr/kg) and 0.19 (ng/mL)/(μg/hr/kg) (2×)"},
      {"measurement": "Incidence of syncope", "setting": "[2]; 2/993 subjects", "value": 0.2, "unit": "%"},
      {"measurement": "Discontinuations due to rash", "setting": "[2]; 6/993", "value": 0.6, "unit": "%"},
      {"measurement": "Subjects with at least 1 treatment emergent adverse event (TEAE)", "setting": "[2]; 613/993 subjects", "value": 61.7, "unit": "%"},
      {"measurement": "Subjects with elevated LFTs (>3×ULN AST and/or ALT)", "setting": "[2]; Phase 1, 2, and 3 placebo-controlled studies", "value": 0.32, "unit": "%"},
      {"measurement": "Events of loss of consciousness", "setting": "[2]; all placebo-controlled studies", "value": "no events of loss of consciousness related to ganaxolone"},
      {"measurement": "TEAE dizziness", "setting": "[2]; human, in vivo", "value": 13.0, "unit": "%"},
      {"measurement": "TEAE fatigue", "setting": "[2]; human, in vivo", "value": 9.7, "unit": "%"},
      {"measurement": "TEAE headache", "setting": "[2]; human, in vivo", "value": 5.5, "unit": "%"},
      {"measurement": "TEAE somnolence", "setting": "[2]; human, in vivo", "value": 22.0, "unit": "%"},
      {"measurement": "Haemolysis", "setting": "[3]", "value": "did not cause haemolysis; also recorded: did not cause hemolysis"}
    ]}
  ]
}
